From patent publication US20250320205A1, “STAT6 DEGRADERS” (Gilead Sciences, Inc., priority 2024, published 2025)

How the values were obtained:
[1] = tested on: Eotaxin-3 (CCL26) release; assay: Human Whole Blood Eotaxin-3 Assay (IL-4 stimulated); assay type: cell-based; conditions: Homo sapiens; geometric mean across assay runs and compound batches; EC50 provided for test compounds with >80% Emax
Method in brief: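 Lithium-heparin human whole blood preincubated 2 h at 37 °C with compounds (4-fold dilutions, triplicate, 0.5% DMSO final). Then stimulated with 400 pM final recombinant human IL-4 for 48 h. Eotaxin-3 in supernatant quantified by MSD immunoassay.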

[2] = molecular target: T1, STAT6 (Homo sapiens, UniProt P42226); assay: STAT6 Degrader Assay (HiBiT based, HeLa LgBiT clone 4.14 cells); assay type: cell-based; conditions: geometric mean across assay runs and compound batches; DC50 provided for test compounds with >80% Emax; read-out: STAT6 degradation DC50
T1 construct: These cells express endogenous STAT6; host or cells: HeLa LgBiT clone 4.14 (CRISPR knock-in of HiBiT into the endogenous STAT6 gene)
T1 sequence (P42226 1-847): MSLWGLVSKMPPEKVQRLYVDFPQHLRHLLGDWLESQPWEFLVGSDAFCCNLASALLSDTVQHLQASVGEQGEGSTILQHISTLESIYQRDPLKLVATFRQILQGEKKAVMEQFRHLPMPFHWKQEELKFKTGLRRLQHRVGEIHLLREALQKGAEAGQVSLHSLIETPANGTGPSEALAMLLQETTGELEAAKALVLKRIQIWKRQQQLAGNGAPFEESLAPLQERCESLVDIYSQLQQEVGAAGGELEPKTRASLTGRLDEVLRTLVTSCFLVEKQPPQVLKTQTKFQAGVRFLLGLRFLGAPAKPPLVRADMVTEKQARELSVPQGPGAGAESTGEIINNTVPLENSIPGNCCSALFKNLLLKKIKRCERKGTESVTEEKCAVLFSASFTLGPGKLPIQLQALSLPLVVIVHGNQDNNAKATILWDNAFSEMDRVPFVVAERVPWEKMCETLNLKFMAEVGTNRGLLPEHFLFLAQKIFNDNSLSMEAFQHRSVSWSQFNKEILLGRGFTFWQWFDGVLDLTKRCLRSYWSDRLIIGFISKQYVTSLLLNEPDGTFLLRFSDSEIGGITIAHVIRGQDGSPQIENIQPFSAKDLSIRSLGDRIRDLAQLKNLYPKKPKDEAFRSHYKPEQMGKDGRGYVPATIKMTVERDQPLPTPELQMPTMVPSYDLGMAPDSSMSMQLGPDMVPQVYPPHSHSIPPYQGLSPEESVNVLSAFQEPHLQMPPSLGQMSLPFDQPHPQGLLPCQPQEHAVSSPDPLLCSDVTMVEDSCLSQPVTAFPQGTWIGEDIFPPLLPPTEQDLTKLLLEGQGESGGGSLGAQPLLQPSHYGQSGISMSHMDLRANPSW
Method in brief: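 HeLa LgBiT clone 4.14 with CRISPR HiBiT-tagged endogenous STAT6, 5000 cells/well, compound exposure 4-24 h at 37° C. Residual STAT6 read as Nano-Glo luminescence after 0.5 h. 50 μM terfenadine set 100% degradation; DC50 in nM.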

| EC50 [1] [nM] | DC50 [2] [nM] | SMILES |
| --- | --- | --- |
| 30.9 | 9.6 | CNc1cc(=O)n(-c2ccnc3c2cc([C@H](C)N2CC=C(c4c(F)cc(C(=O)N5CCC(CN6CCN(c7ccc(N[C@@H]8CCC(=O)NC8=O)cc7F)CC6)CC5)cc4F)CC2)n3C)cc1F (single isomer, unassigned) [Example 2g121] |
| 408 | 120 | CNc1cc(=O)n(-c2ccnc3c2cc(CN2CC=C(c4c(F)cc(C(=O)N5CCC(CN6CCN(c7ccc(NC8CCC(=O)NC8=O)cc7F)CC6)CC5)cc4F)CC2)n3C)cc1F (centres unmarked) [Example 2g65, 3-((4-(4-((1-(3,5-difluoro-4-(1-((4-(5-fluoro-4-(methyl-amino)-2-oxopyridin-1(2H)-yl)-1-methyl-1H-pyrrolo[2,3-b]pyridin-2-yl)methyl)-1,2,3,6-tetrahydropyridin-4-yl)benzoyl)piperidin-4-yl)-methyl)piperazin-1-yl)-3-fluorophenyl)amino)piperi-dine-2,6-dione] |
| 19.2 | 11.4 | CNc1ccn(-c2ccnc3c2cc([C@H](C)N2CC=C(c4c(C)cc(C(=O)N5CCC(CN6CCN(Cc7ccc(NC8CCC(=O)NC8=O)c(F)c7)CC6)CC5)cc4F)CC2)n3C)c(=O)c1 (stereo partly drawn) [Example 2g10, 3-((2-fluoro-4-((4-((1-(3-fluoro-5-methyl-4-(1-((S)-1-(1-methyl-4-(4-(methyl-amino)-2-oxopyridin-1(2H)-yl)-1H-pyrrolo[2,3-b]pyridin-2-yl)ethyl)-1,2,3,6-tetrahydro-pyridin-4-yl)benzoyl)-piper-idin-4-yl)methyl)piperazin-1-yl)methyl)phenyl)amino)-piperidine-2,6-dione] |
| 3.5 | 2.2 | Cc1cc(C(=O)N2CCn3nc(CN4CCC(c5ccc(NC6CCC(=O)NC6=O)cc5F)CC4)cc3C2)cc(F)c1C1=CCN([C@@H](C)c2cc3c(-n4cc(F)c5c(c4=O)CCN5)ccnc3n2C)CC1 (stereo partly drawn) [Example 2g14, 3-((3-fluoro-4-(1-((5-(3-fluoro-4-(1-((S)-1-(4-(7-fluoro-4-oxo-1,2,3,4-tetra-hydro-5H-pyrrolo[3,2-c]pyridin-5-yl)-1-methyl-1H-pyrrolo[2,3-b]pyridin-2-yl)-ethyl)-1,2,3,6-tetrahydro-pyridin-4-yl)-5-methylbenzo-yl)-4,5,6,7-tetrahydropyrazolo [1,5-a]pyrazin-2-yl)methyl)-piperidin-4-yl)phenyl)amino)-piperidine-2,6-dione] |
| 13.8 | 3.5 | CNc1ccn(-c2ccnc3c2cc([C@H](C)N2CC=C(c4c(C)cc(C(=O)N5CCC(CN6CCN(c7ncc(NC8CCC(=O)NC8=O)cc7F)C[C@H]6C)CC5)cc4F)CC2)n3C)c(=O)c1 (stereo partly drawn) [Example 2g113, 3-((5-fluoro-6-((R)-4-((1-(3-fluoro-5-methyl-4-(1-((S)-1-(1-methyl-4-(4-(methyl-amino)-2-oxopyridin-1(2H)-yl)-1H-pyrrolo[2,3-b]pyridin-2-yl)ethyl)-1,2,3,6-tetrahydro-pyridin-4-yl)benzoyl)piperi-din-4-yl)methyl)-3-methyl-piperazin-1-yl)pyridin-3-yl)-amino)piperidine-2,6-dione] |
| 22.1 | 5.7 | C[C@@H](c1cc2c(-n3ccc4c(c3=O)CCN4)ccnc2n1C)N1CCC(c2ccc(C(=O)N3CCC(CN4CCN(c5ccc(N[C@H]6CCC(=O)NC6=O)cc5F)CC4)CC3)cc2)CC1 (single isomer, unassigned) [Example 2c36] |
| 0.7 | 0.5 | CNc1ccn(-c2ccnc3c2cc([C@H](C)N2CC=C(c4c(F)cc(C(=O)N5CCn6nc(CN7CCC(c8ccc(NC9CCC(=O)NC9=O)cc8F)CC7)cc6C5)cc4F)CC2)n3C)c(=O)c1 (stereo partly drawn) [Example 2g108, 3-((4-(1-((5-(3,5-difluoro-4-(1-((S)-1-(1-methyl-4-(4-(methylamino)-2-oxopyridin-1(2H)-yl)-1H-pyrrolo[2,3-b]pyridin-2-yl)ethyl)-1,2,3,6-tetrahydropyridin-4-yl)benzo-yl)-4,5,6,7-tetrahydropyrazolo [1,5-a]pyrazin-2-yl)methyl)-piperidin-4-yl)-3-fluorophen-yl)amino)piperidine-2,6-dione] |
| 2.6 | 1.8 | CNc1cc(=O)n(-c2ccnc3c2cc(CN2CCC(c4c(F)cc(C(=O)N5CCn6nc(CN7CCC(c8ccc(N[C@H]9CCC(=O)NC9=O)c(OC)c8)CC7)cc6C5)cc4F)CC2)n3C)cc1F (single isomer, unassigned) [Example 2g123] |
| 16.7 | 6.9 | CNc1ccn(-c2ccnc3c2cc([C@H](C)N2CC=C(c4c(C)cc(C(=O)N5CCC(CN6CCN(c7ccc(N[C@H]8CCC(=O)NC8=O)cc7F)C[C@@H]6C)CC5)cc4F)CC2)n3C)c(=O)c1 (single isomer, unassigned) [Example 2g98] |
| 0.2 | 0.1 | CNc1ccn(-c2ccnc3c2cc([C@H](C)N2CC=C(c4c(C)cc(C(=O)N5CCn6nc(CN7CCC(c8cc(OC)c(NC9CCC(=O)NC9=O)cc8F)CC7)cc6C5)cc4F)CC2)n3C)c(=O)c1 (stereo partly drawn) [Example 2g128, 3-((5-fluoro-4-(1-((5-(3-fluoro-5-methyl-4-(1-((S)-1-(1-methyl-4-(4-(methyl-amino)-2-oxopyridin-1(2H)-yl)-1H-pyrrolo[2,3-b]pyridin-2-yl)ethyl)-1,2,3,6-tetrahydro-pyridin-4-yl)benzoyl)-4,5,6,7-tetrahydropyrazolo[1,5-a]pyr-azin-2-yl)methyl)piperidin-4-yl)-2-methoxyphenyl)amino)-piperidine-2,6-dione] |
| 15.4 | 10.3 | CNc1cc(=O)n(-c2ccnc3c2cc([C@H](C)N2CC=C(c4c(C)cc(C(=O)N5CCn6nc(CC7(O)CCN(c8ccc(NC9CCC(=O)NC9=O)c(OC)c8)CC7)cc6C5)cc4F)CC2)n3C)cc1F (stereo partly drawn) [Example 2g7, 3-((4-(4-((5-(3-fluoro-4-(1-((S)-1-(4-(5-fluoro-4-(meth-ylamino)-2-oxopyridin-1(2H)-yl)-1-methyl-1H-pyrrolo[2,3-b]pyridin-2-yl)ethyl)-1,2,3,6-tetrahydropyridin-4-yl)-5-methylbenzoyl)-4,5,6,7-tetra-hydropyrazolo[1,5-a]pyrazin-2-yl)methyl)-4-hydroxy-piperidin-1-yl)-2-methoxy-phenyl)amino)-piperidine-2,6-dione] |
| 1.8 | 1.2 | CNc1ccn(-c2ccnc3c2cc(CN2CCC(c4c(F)cc(C(=O)N5CCn6nc(CN7CCC(c8ccc(NC9CCC(=O)NC9=O)cc8F)CC7)cc6C5)cc4F)CC2)n3C)c(=O)c1 (centres unmarked) [Example 2g100, 3-((4-(1-((5-(3,5-difluoro-4-(1-((1-methyl-4-(4-(methyl-amino)-2-oxopyridin-1(2H)-yl)-1H-pyrrolo[2,3-b]pyridin-2-yl)methyl)piperidin-4-yl)-benzoyl)-4,5,6,7-tetrahydro-pyrazolo[1,5-a]pyrazin-2-yl)-methyl)piperidin-4-yl)-3-fluorophenyl)amino)piperi-dine-2,6-dione] |
| 0.9 | 1.1 | CNc1cc(=O)n(-c2ccnc3c2cc([C@H](C)N2CC=C(c4c(F)cc(C(=O)N5CCn6nc(CN7CCC(c8ccc(NC9CCC(=O)NC9=O)cc8F)CC7)cc6C5)cc4F)CC2)n3C)cc1F (stereo partly drawn) [Example 2g112, 3-((4-(1-((5-(3,5-difluoro-4-(1-((S)-1-(4-(5-fluoro-4-(methylamino)-2-oxopyridin-1(2H)-yl)-1-methyl-1H-pyr-rolo[2,3-b]pyridin-2-yl)ethyl)-1,2,3,6-tetrahydropyridin-4-yl)benzoyl)-4,5,6,7-tetra-hydropyrazolo[1,5-a]pyrazin-2-yl)methyl)piperidin-4-yl)-3-fluorophenyl)amino)piperi-dine-2,6-dione] |
